# Source: US20050234041A1, “Substituted 1-benzazepines and derivatives thereof” (priority 2001, published 2005)
# Read-outs that look alike come from different tables or passages of the source.
# Legend:
# [1] = tested on: Campylobacter jejuni; assay: MIC, broth dilution method, Campylobacter jejuni; type: cell-based; conditions: for MIC: Campylobacter jejuni
# Source text: (§1) Antibacterial activity can be determined by several standard methods well known by those skilled in the art, including disc diffusions methods, broth dilution minimal inhibitory concentration (MIC) methods, etc., including the detailed method outlined below and as defined by the National Committee of Clinical Laboratory Standards in the United States.
# (§2) MIC, Broth Dilution Method
# (§3) Cultures of bacteria are initially brought up from the freezer stocks onto chocolate agar plates by streaking a loop-full, then incubated for 18 hours at 35-37° C. in a 5% CO2 incubator.
# (§4) Five to 10 colonies are picked from the chocolate agar plate for subculture to Brain-Heart Infusion (BHI) broth or Mueller Hinton broth or BHI containing 4% serum and incubated as described.
# (§5) Evaluate the optical density of the organisms in the wells of a 96 well microtiter plate with and without the test compound. The optical density of the organisms in the presence of an active compound will be less than the optical density of the same organism untreated. The activity of the compounds is described as either negative or the lowest concentration inhibiting growth. The results are depicted in Table III, where +/− represents the least activity and ++++ represents the greatest activity. In Table IV, the results are depicted where MIC represents the lowest concentration of antibiotic that inhibits bacterial growth.
# [2] = tested on: Helicobacter pylori; assay: MIC, broth dilution method, Helicobacter pylori; type: cell-based; conditions: for MIC: Helicobacter pylori
# Source text: as §1, §2, §3, §4, §5
# [3] = Table V, read-out: MIC (μg/mL) C. jejuni
# [4] = Table V, read-out: MIC (μg/mL) H. pylori
# [5] = Table IV, MIC, lowest concentration that inhibits bacterial growth
# [6] = Table IV, MIC, lowest concentration that inhibits bacterial growth, read-out: Antibacterial Activity (micrograms/ml) Campylobacter jejuni
# [7] = Table IV, MIC, lowest concentration that inhibits bacterial growth, read-out: Antibacterial Activity (micrograms/ml) Helicobacter pylori
"MIC [1, 3]","MIC [2, 4]",Structure (SMILES),also measured
250 µg/mL,64 µg/mL,"CCN1C(=O)CCCc2ccc(N)cc21 [Example 190, 8-Amino-1-ethyl-2,3,4,5-tetrahydro-1H-1-benzazepine-2-one]",
,,"CCOC(=O)NC(=O)N(C(=O)NC(=O)OCC)c1cc2c(cc1OC)NC(=O)C(C(=O)OC(C)(C)C)CC2 (racemic) [Example 204, 3(R,S)-tert-Butoxycarbonyl-7-di(ethoxycabonylaminocarbonyl)amino-8-methoxy-2,3,4,5-tetrahydro-1H-1-benzazepine-2-one]","MIC (μg/mL) C. jejuni ([1]; Table V): >250, μg/mL; MIC (μg/mL) H. pylori ([2]; Table V): 60 µg/mL"
,,"CCN1C(=O)C(C(=O)OC(C)(C)C)CCc2cc(N3CCN(C(=O)OCc4ccccc4)CC3)c(OC)cc21 (racemic) [Example 26, 7-[(4-benzyloxycarbonyl)-piperazin-1-yl]-3(R,S)-tert-butoxycarbonyl-1-ethyl-8-methoxy-2,3,4,5-tetrahydro-1H-1-benzazepine-2-one]","Antibacterial Activity (micrograms/ml) Campylobacter jejuni [1, 5]: 125 micrograms/ml; Antibacterial Activity (micrograms/ml) Helicobacter pylori [2, 5]: 12.5 micrograms/ml"
,,"CCN1C(=O)C(Br)(C(=O)OC)CCc2cc(Br)c(OC)cc21 (racemic) [Example 27, 3,7-dibromo-1-ethyl-3(R,S)-methoxycarbonyl-8-methoxy-2,3,4,5-tetrahydro-1H-benzazepine-2-one]","MIC [1, 6]: > 200 µg/mL; MIC [2, 7]: 12.5 µg/mL"
,,"CCN1C(=O)CCCc2cc(N3CCN(C(=O)OC(C)(C)C)CC3)c(OC)cc21 [Example 21, 7-[(4-tert-butoxycarbonylpiperazin)-1-yl]-1-ethyl-8-methoxy-2,3,4,5-tetrahydro-1H-1-benzazepine-2-one]","Antibacterial Activity (micrograms/ml) Campylobacter jejuni [1, 5]: >200 micrograms/ml; Antibacterial Activity (micrograms/ml) Helicobacter pylori [2, 5]: 12.5-25 micrograms/ml"
> 250 µg/mL,64 µg/mL,"O=C1CCCc2ccccc2N1 [Example 187, 2,3,4,5-tetrahydro-1H-1-benzazepine-2-one]",
,,"CCN1C(=O)C(C(=O)OC(C)(C)C)CCc2cc(N3CCN(C(=O)OC(C)(C)C)CC3)c(OC)cc21 (racemic) [Example 14, 3(R,S)-tert-Butoxycarbonyl-7-[(4-tert-butoxycarbonyl-piperazin)-1-yl]-1-ethyl-8-methoxy-2,3,4,5-tetrahydro-1H-1-benzazepine-2-one]","Antibacterial Activity (micrograms/ml) Campylobacter jejuni [1, 5]: >200 micrograms/ml; Antibacterial Activity (micrograms/ml) Helicobacter pylori [2, 5]: 50 micrograms/ml"
> 250 µg/mL,32 µg/mL,"O=C1CCCc2c(O)cccc2N1 [Example 188, 6-Hydroxy-2,3,4,5-tetrahydro-1H-1-benzazepine-2-one]",
8 µg/mL,16 µg/mL,"CCN1C(=O)CCCc2ccc(Br)cc21 [Example 191, 8-Bromo-1-ethyl-2,3,4,5-tetrahydro-1H-1-benzazepine-2-one]",
,,"CCN1C(=O)CCCc2ccc(OC)cc21 [Example 8, 1-Ethyl-8-methoxy-2,3,4,5-tetrahydro-1H-1-benzazepine-2-one]","MIC [1, 6]: 50 µg/mL; MIC [2, 7]: > 200 µg/mL"
,,"COc1ccc2c(c1)N(CCO)C(=O)C(C(=O)OC(C)(C)C)CC2 (racemic) [Example 222, 3(R,S)-tert-Butoxycarbonyl-1-(2-hydroxy)ethyl-8-methoxy-2,3,4,5-tetrahydro-1H-1-benzazepine-2-one]","MIC (μg/mL) C. jejuni ([1]; Table V): >250, μg/mL; MIC (μg/mL) H. pylori ([2]; Table V): 60 µg/mL"
,,"COc1cc2c(cc1[N+](=O)[O-])CCC(C(=O)OC(C)(C)C)C(=O)N2CCOC1CCCCO1 [Example 224, 3(R,S)-tert-Butoxycarbonyl-8-methoxy-7-nitro-1-[2-(tetrahydro-2H-pyran-2-yloxy)]ethyl-2,3,4,5-tetrahydro-1H-1-benzazepine-2-one]","MIC (μg/mL) C. jejuni ([1]; Table V): >250, μg/mL; MIC (μg/mL) H. pylori ([2]; Table V): 60 µg/mL"
,,"CCOC(=O)NC(=S)Nc1cc2c(cc1O)NC(=O)C(C(=O)OC(C)(C)C)CC2 (racemic) [Example 215, 3(R,S)-tert-Butoxycarbonyl-7-[(ethoxycarbonylamino)thiocarbonyl)]amino-8-hydroxyl-2,3,4,5-tetrahydro-H-1-benzazepine-2-one]","MIC (μg/mL) C. jejuni ([1]; Table V): >250, μg/mL; MIC (μg/mL) H. pylori ([2]; Table V): 30 µg/mL"
> 250 µg/mL,64 µg/mL,"COc1cccc2c1CCCC(=O)N2 [Example 186, 6-Methoxy-2,3,4,5-tetrahydro-1 H-1-benzazepine-2-one]",
,,"COc1ccc2c(c1)N(CCN1CCOCC1)C(=O)C(C(=O)OC(C)(C)C)CC2 (racemic) [Example 213, 3(R,S)-tert-Butoxycarboxyl-8-methoxy-1-[2-(4-morpholinyl)]ethyl-2,3,4,5-tetrahydro-1H-1-benzazepine-2-one]","MIC (μg/mL) C. jejuni ([1]; Table V): >250, μg/mL; MIC (μg/mL) H. pylori ([2]; Table V): 125 µg/mL"
> 250 µg/mL,60 µg/mL,"COc1ccc2c(c1)N(CC(N)=O)C(=O)C(C(=O)OC(C)(C)C)CC2 (racemic) [Example 201, 1-(Aminocarbonyl)methyl-3(R,S)-tert-butyloxycarbonyl-8-methoxy-2,3,4,5-tetrahydro-1H-1-benzazepine-2-one]",
,,"CCOC(=O)C1(CC)CCc2ccc(OC)cc2N(CC)C1=O (racemic) [Example 6, 1,3-Diethyl-3(R,S)-ethoxycarbonyl-8-methoxy-2,3,4,5-tetrahydro-1H-1-benzazepine-2-one]","MIC [1, 6]: 50 µg/mL; MIC [2, 7]: 12.5 µg/mL"
,,"CCN1C(=O)C(CC)(C(=O)O)CCc2ccc(OC)cc21 (racemic) [Example 7, 3(R,S)-Carboxyl-1,3-diethyl-8-methoxy-2,3,4,5-tetrahydro-1H-1-benzazepine-2-one]","MIC [1, 6]: > 200 µg/mL; MIC [2, 7]: 100 µg/mL"
8 µg/mL,16 µg/mL,"CCN1C(=O)CCCc2ccc([N+](=O)[O-])cc21 [Example 182, 8-Nitro-1-ethyl-2,3,4,5-tetrahydro-1H-1-benzazepine-2-one]",
,,"CCN1C(=O)C(C(=O)O)CCc2cc(N3CCN(c4cc5c(cc4OC)N(CC)C(=O)C(C(=O)O)CC5)CC3)c(OC)cc21 [Example 20, 1,4-Di-[(3(R,S)-carboxyl-1-ethyl-8-methoxy-2-oxo-2,3,4,5-tetrahydro-1H-1-benzazepine)-7-yl]-piperazine]","Antibacterial Activity (micrograms/ml) Campylobacter jejuni [1, 5]: >200 micrograms/ml; Antibacterial Activity (micrograms/ml) Helicobacter pylori [2, 5]: 100 micrograms/ml"
32 µg/mL,125 µg/mL,"COc1ccc2c(c1)CCCC(=O)N2 [Example 185, 7-Methoxy-2,3,4,5-tetrahydro-1H-1-benzazepine-2-one]",
,,"CCOC(=O)C1CCc2ccc(OC)cc2N(CC)C1=O (racemic) [Example 4, 3(R,S)-Ethoxycarbonyl-1-ethyl-8-methoxy-2,3,4,5-tetrahydro-1H-1-benzazepine-2-one]","MIC [1, 6]: 50 µg/mL; MIC [2, 7]: 125 to 250 µg/mL"
> 250 µg/mL,125 µg/mL,"COc1ccc2c(c1)NC(=O)C(C(=O)NO)CC2 (centres unmarked) [Example 197, 3-Hydoxyaminocarbonyl-8-methoxy-2,3,4,5-tetrahydro-1H-1-benzazepine-2-one]",
> 250 µg/mL,125 µg/mL,"COc1ccc2c(c1)N(Cc1cccc(F)c1)C(=O)C(C(=O)O)CC2 (racemic) [Example 184, 3(R,S)-carboxyl-1-(3-fluorobenzyl)-8-methoxy-2,3,4,5-tetrahydro-1H-1-benzazepine-2-one]",
,,"COc1ccc2c(c1)N(Cc1cccc(F)c1)C(=O)C(C(=O)OC(C)(C)C)CC2 (racemic) [Example 25, 3(R,S)-tert-Butoxycarbonyl-1-(3-fluorobenzyl)-8-methoxy-2,3,4,5-tetrahydro-1H-1-benzazepine-2-one]","MIC [1, 6]: > 200 µg/mL; MIC [2, 7]: 12.5 µg/mL"

Structure (SMILES),"MIC [1, 3]","MIC [2, 4]",also measured
"CC(C)(C)OC(=O)C1CCc2ccc(O)cc2N(C(=O)OC(C)(C)C)C1=O (racemic) [Example 183, 1,3(R,S)-Di(tert-butoxycarbonyl)-8-hydroxy-2,3,4,5-tetrahydro-1H-1-benzazepine-2-one]",125 µg/mL,64 µg/mL,
"COc1ccc2c(c1)N(CCOC1CCCCO1)C(=O)C(C(=O)OC(C)(C)C)CC2 (racemic) [Example 221, 3(R,S)-tert-Butoxycarbonyl-8-methoxy-1-[2-(tetrahydro-2H-pyran-2-yl)oxyethyl]-2,3,4,5-tetrahydro-1H-1-benzazepine-2-one]",> 250 µg/mL,15 µg/mL,
"COc1ccc2c(c1)N(CCC1OCCO1)C(=O)C(C(=O)OC(C)(C)C)CC2 (racemic) [Example 223, 3(R,S)-tert-Butoxycarbonyl-8-methoxy-1-[2-(1,3-dioxolan-2-yl)ethyl]-2,3,4,5-tetrahydro-1H-1-benzazepine-2-one]",> 250 µg/mL,60 µg/mL,
"COc1cc2c(cc1[N+](=O)[O-])CCC(C(=O)OC(C)(C)C)C(=O)N2 (racemic) [Example 198, 3(R,S)-tert-Butoxycarbonyl-8-methoxy-7-nitro-2,3,4,5-tetrahydro-1H-1-benzazepine-2-one]",60 µg/mL,4 µg/mL,
"COc1ccc2c(c1)N(CC#N)C(=O)C(C(=O)OC(C)(C)C)CC2 (racemic) [Example 196, 3(R,S)-tert-Butoxycarbonyl-1-cyanomethyl-8-methoxy-2,3,4,5-tetrahydro-1H-1-benzazepine-2-one]",30 µg/mL,4 µg/mL,
"CCN1C(=O)C(C(=O)OC(C)(C)C)CCc2ccc(O[Si](C)(C)C(C)(C)C)cc21 (racemic) [Example 179, 3(R,S)-tert-Butoxycarbonyl-8-tert-Butyldimethylsilyloxy-1-ethyl-2,3,4,5-tetrahydro-1H-1-benzazepine-2-one]",> 200 µg/mL,16 µg/mL,
